Measured values reported in patent US20220046923A1, “HERBICIDAL CINNOLINIUM COMPOUNDS” (SYNGENTA CROP PROTECTION AG, priority 2018, published 2022).

Key:
Experiment in all cases: Post-emergence efficacy, glasshouse spray test
Format in all cases: in vivo
Settings in all cases: evaluated after 13 days; for pest or weed control at 1000 g/ha: application rate 1000 g/Ha
[1] = test system: Echinochloa crus-galli (ECHCG)
Procedure, shortened: (§1)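 Compound formulated in acetone/IF50 and diluted into 0.25% or 1% Empicol ESC70 with 1% ammonium sulphate was sprayed on glasshouse seedlings 14 days after sowing. Growth continued at 24/16 °C, 14 h light, 65% humidity with twice-daily watering; damage (0–100) scored on day 13.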

[2] = test system: Digitaria sanguinalis (DIGSA)
Procedure, shortened: as §1

Lolium perenne (LOLPE) = test system: Lolium perenne (LOLPE)
Procedure, shortened: as §1

[3] = test system: Amaranthus palmeri (AMAPA)
Procedure, shortened: as §1

Eleusine indica (ELEIN) = test system: Eleusine indica (ELEIN)
Procedure, shortened: as §1

[4] = test system: Ipomoea hederacea (IPOHE)
Procedure, shortened: as §1

[5] = test system: Euphorbia heterophylla (EPHHL)
Procedure, shortened: as §1

Setaria faberi (SETFA) = test system: Setaria faberi (SETFA)
Procedure, shortened: as §1

[6] = test system: Chenopodium album (CHEAL)
Procedure, shortened: as §1

[7] = Echinochloa crus-galli, post-emergence, 312 h, read-out: Control of weed species ECHCG after post-emergence application (100=total damage to plant; 0=no damage to plant)
[8] = Digitaria sanguinalis, post-emergence, 312 h, read-out: Control of weed species DIGSA after post-emergence application (100=total damage to plant; 0=no damage to plant)
[9] = Lolium perenne, post-emergence, 312 h, read-out: Control of weed species LOLPE after post-emergence application (100=total damage to plant; 0=no damage to plant)
[10] = Amaranthus palmeri, post-emergence, 312 h, read-out: Control of weed species AMAPA after post-emergence application (100=total damage to plant; 0=no damage to plant)
[11] = Eleusine indica, post-emergence, 312 h, read-out: Control of weed species ELEIN after post-emergence application (100=total damage to plant; 0=no damage to plant)
[12] = Ipomoea hederacea, post-emergence, 312 h, read-out: Control of weed species IPOHE after post-emergence application (100=total damage to plant; 0=no damage to plant)
[13] = Euphorbia heterophylla, post-emergence, 312 h, read-out: Control of weed species EPHHL after post-emergence application (100=total damage to plant; 0=no damage to plant)
[14] = Setaria faberi, post-emergence, 312 h, read-out: Control of weed species SETFA after post-emergence application (100=total damage to plant; 0=no damage to plant)
[15] = Chenopodium album, post-emergence, 312 h, read-out: Control of weed species CHEAL after post-emergence application (100=total damage to plant; 0=no damage to plant)

SMILES | pest or weed control at 1000 g/ha [1, 7] [%] | pest or weed control at 1000 g/ha [2, 8] [%] | pest or weed control at 1000 g/ha (Lolium perenne (LOLPE); [9]) [%] | pest or weed control at 1000 g/ha [3, 10] [%] | pest or weed control at 1000 g/ha (Eleusine indica (ELEIN); [11]) [%] | pest or weed control at 1000 g/ha [4, 12] [%] | pest or weed control at 1000 g/ha [5, 13] [%] | pest or weed control at 1000 g/ha (Setaria faberi (SETFA); [14]) [%] | pest or weed control at 1000 g/ha [6, 15] [%] | further results
O=P([O-])(O)CC[n+]1ccc2ccccc2n1 [Compound A71] | 40 | 80 | 30 | 70 | 70 | 40 | 90 | 70 | 100 | 
CCOP(=O)(CC[n+]1ccc2ccccc2n1)OCC.[Br-] [Compound A99] |  |  |  |  |  |  |  |  |  | Control of weed species ECHCG after post-emergence application (100=total damage to plant; 0=no damage to plant) ([1]; application rate 500 g/Ha): 40; Control of weed species DIGSA after post-emergence application (100=total damage to plant; 0=no damage to plant) ([2]; application rate 500 g/Ha): 50; Control of weed species LOLPE after post-emergence application (100=total damage to plant; 0=no damage to plant) (Lolium perenne (LOLPE); application rate 500 g/Ha): 20; Control of weed species AMAPA after post-emergence application (100=total damage to plant; 0=no damage to plant) ([3]; application rate 500 g/Ha): 10; Control of weed species ELEIN after post-emergence application (100=total damage to plant; 0=no damage to plant) (Eleusine indica (ELEIN); application rate 500 g/Ha): 30; Control of weed species IPOHE after post-emergence application (100=total damage to plant; 0=no damage to plant) ([4]; application rate 500 g/Ha): 10; Control of weed species EPHHL after post-emergence application (100=total damage to plant; 0=no damage to plant) ([5]; application rate 500 g/Ha): 40; Control of weed species SETFA after post-emergence application (100=total damage to plant; 0=no damage to plant) (Setaria faberi (SETFA); application rate 500 g/Ha): 50; Control of weed species CHEAL after post-emergence application (100=total damage to plant; 0=no damage to plant) ([6]; application rate 500 g/Ha): 20
COc1cccc2cc[n+](CCS(=O)(=O)[O-])nc12 [Compound A86] | 50 | 40 | 60 | 100 | 80 | 90 | 90 | 50 | 100 | 
O=S(=O)(O)CC[n+]1ccc2cccc(I)c2n1 [Compound A42, 2-(8-iodocinnolin-2-ium-2-yl)ethanesulfonic acid 2,2,2-trifluoroacetate] | 20 | 40 | 10 | 90 | 80 | 70 | 50 | 50 | 50 | 
COC(=O)C[n+]1cc(C)c2ccccc2n1 [Compound A62] | 30 | 50 | 40 | 70 | 70 | 50 | 40 | 30 | 60 | 
COc1ccc2n[n+](CCS(=O)(=O)[O-])ccc2c1 [Compound A37] | 50 | 60 | 20 | 0 | 60 | 10 | 20 | 40 | 0 | 
O=S(=O)([O-])CC[n+]1ccc2ccc(Cl)cc2n1 [Compound A94] | 40 | 50 | 40 | 100 | 90 | 40 | 100 | 50 | 90 | 
O=S(=O)([O-])CC[n+]1ccc2cccc(Cl)c2n1 [Compound A22] | 40 | 50 | 20 | 70 | 70 | 20 | 70 | 30 | 70 | 
CC(=O)Nc1cccc2cc[n+](CCS(=O)(=O)[O-])nc12 [Compound A107, 2-(8-acetamidocinnolin-2-ium-2-yl)ethanesulfonate] |  |  |  |  |  |  |  |  |  | pest or weed control at 130 g/ha ([1]; Echinochloa crus-galli, post-emergence, 312 h, application rate 130 g/Ha, read-out: Control of weed species ECHCG after post-emergence application (100=total damage to plant; 0=no damage to plant)): 80%; pest or weed control at 130 g/ha ([2]; Digitaria sanguinalis, post-emergence, 312 h, application rate 130 g/Ha, read-out: Control of weed species DIGSA after post-emergence application (100=total damage to plant; 0=no damage to plant)): 70%; pest or weed control at 130 g/ha (Lolium perenne (LOLPE); Lolium perenne, post-emergence, 312 h, application rate 130 g/Ha, read-out: Control of weed species LOLPE after post-emergence application (100=total damage to plant; 0=no damage to plant)): 40%; pest or weed control at 130 g/ha ([3]; Amaranthus palmeri, post-emergence, 312 h, application rate 130 g/Ha, read-out: Control of weed species AMAPA after post-emergence application (100=total damage to plant; 0=no damage to plant)): 60%; pest or weed control at 130 g/ha (Eleusine indica (ELEIN); Eleusine indica, post-emergence, 312 h, application rate 130 g/Ha, read-out: Control of weed species ELEIN after post-emergence application (100=total damage to plant; 0=no damage to plant)): 40%; pest or weed control at 130 g/ha ([4]; Ipomoea hederacea, post-emergence, 312 h, application rate 130 g/Ha, read-out: Control of weed species IPOHE after post-emergence application (100=total damage to plant; 0=no damage to plant)): 40%; pest or weed control at 130 g/ha ([5]; Euphorbia heterophylla, post-emergence, 312 h, application rate 130 g/Ha, read-out: Control of weed species EPHHL after post-emergence application (100=total damage to plant; 0=no damage to plant)): 50%; pest or weed control at 130 g/ha (Setaria faberi (SETFA); Setaria faberi, post-emergence, 312 h, application rate 130 g/Ha, read-out: Control of weed species SETFA after post-emergence application (100=total damage to plant; 0=no damage to plant)): 70%; pest or weed control at 130 g/ha ([6]; Chenopodium album, post-emergence, 312 h, application rate 130 g/Ha, read-out: Control of weed species CHEAL after post-emergence application (100=total damage to plant; 0=no damage to plant)): 40%
CC(C)(C[n+]1ccc2ccccc2n1)C(=O)O [Compound A113, 3-cinnolin-2-ium-2-yl-2,2-dimethyl-propanoic Acid 2,2,2-trifluoroacetate] |  |  |  |  |  |  |  |  |  | pest or weed control at 500 g/ha ([1]; Echinochloa crus-galli, post-emergence, 312 h, application rate 500 g/Ha, read-out: Control of weed species ECHCG after post-emergence application (100=total damage to plant; 0=no damage to plant)): 40%; pest or weed control at 500 g/ha ([2]; Digitaria sanguinalis, post-emergence, 312 h, application rate 500 g/Ha, read-out: Control of weed species DIGSA after post-emergence application (100=total damage to plant; 0=no damage to plant)): 30%; pest or weed control at 500 g/ha (Lolium perenne (LOLPE); Lolium perenne, post-emergence, 312 h, application rate 500 g/Ha, read-out: Control of weed species LOLPE after post-emergence application (100=total damage to plant; 0=no damage to plant)): 20%; pest or weed control at 500 g/ha ([3]; Amaranthus palmeri, post-emergence, 312 h, application rate 500 g/Ha, read-out: Control of weed species AMAPA after post-emergence application (100=total damage to plant; 0=no damage to plant)): 10%; pest or weed control at 500 g/ha (Eleusine indica (ELEIN); Eleusine indica, post-emergence, 312 h, application rate 500 g/Ha, read-out: Control of weed species ELEIN after post-emergence application (100=total damage to plant; 0=no damage to plant)): 30%; pest or weed control at 500 g/ha ([4]; Ipomoea hederacea, post-emergence, 312 h, application rate 500 g/Ha, read-out: Control of weed species IPOHE after post-emergence application (100=total damage to plant; 0=no damage to plant)): 10%; pest or weed control at 500 g/ha ([5]; Euphorbia heterophylla, post-emergence, 312 h, application rate 500 g/Ha, read-out: Control of weed species EPHHL after post-emergence application (100=total damage to plant; 0=no damage to plant)): 10%; pest or weed control at 500 g/ha (Setaria faberi (SETFA); Setaria faberi, post-emergence, 312 h, application rate 500 g/Ha, read-out: Control of weed species SETFA after post-emergence application (100=total damage to plant; 0=no damage to plant)): 20%; pest or weed control at 500 g/ha ([6]; Chenopodium album, post-emergence, 312 h, application rate 500 g/Ha, read-out: Control of weed species CHEAL after post-emergence application (100=total damage to plant; 0=no damage to plant)): 10%
CS(=O)(=O)NC(=O)C[n+]1ccc2ccccc2n1 [Compound A15, 2-cinnolin-2-ium-2-yl-N-methylsulfonyl-acetamide bromide] | 40 | 70 | 60 | 90 | 80 | 80 | 90 | 60 | 80 | 
